Where two headings read alike, the source gives them in different places.
What was measured:
[1] = molecular target: T1, ITK (Homo sapiens, UniProt Q08881); assay: Inhibitory activity against ITK, ADP-Glo Kinase system (Promega); format: biochemical
T1 construct: purchased Signalchem I13-11G-10
T1 sequence (Q08881 1-620): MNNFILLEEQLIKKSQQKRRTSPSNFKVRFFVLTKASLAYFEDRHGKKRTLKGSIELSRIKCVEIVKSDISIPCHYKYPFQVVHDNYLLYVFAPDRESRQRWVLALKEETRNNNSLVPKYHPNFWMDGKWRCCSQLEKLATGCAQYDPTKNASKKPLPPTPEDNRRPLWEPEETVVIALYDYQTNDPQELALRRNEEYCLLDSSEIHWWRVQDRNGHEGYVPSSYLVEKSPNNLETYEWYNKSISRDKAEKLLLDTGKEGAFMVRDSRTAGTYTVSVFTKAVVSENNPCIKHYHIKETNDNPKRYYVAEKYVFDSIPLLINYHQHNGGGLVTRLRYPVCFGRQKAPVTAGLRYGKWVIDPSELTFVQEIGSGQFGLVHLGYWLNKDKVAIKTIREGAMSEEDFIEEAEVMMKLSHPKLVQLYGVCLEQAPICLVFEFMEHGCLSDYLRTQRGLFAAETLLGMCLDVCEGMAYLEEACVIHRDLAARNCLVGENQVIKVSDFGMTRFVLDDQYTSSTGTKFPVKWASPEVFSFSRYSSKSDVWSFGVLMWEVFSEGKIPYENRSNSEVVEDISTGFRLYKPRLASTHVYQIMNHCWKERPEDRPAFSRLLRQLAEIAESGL
Experimental: (§1) Inhibitory activities against BTK and ITK were measured for the compounds prepared in the above Examples as follows.
(§2) The inhibitory activities against BTK and ITK were evaluated using 'ADP-Glo™ Kinase system' (Promega Corporation). In the case of this evaluation method, activation was measured by quantifying the amount of ADP produced during the kinase reaction, which was utilized to measure the inhibitory activities against BTK and ITK.
(§3) Specifically, the inhibitory activities against BTK and ITK were measured using BTK kinase (Signalchem, B10-10H), ITK kinase (Signalchem, I13-11G-10), and ADP-Glo kinase assay kit (Promega, V9102). Recombinant purified human BTK and ITK were diluted with 1 x kinase reaction buffer (40 mM Tris-Cl, pH 7.5, 20 mM MgCl2, 0.1 mg/mL BSA, 2 mM MnCl2 and 50 uM DTT) and added to a 96 well plate (ITK: final concentration of 4 ng per reaction/BTK: final concentration of 10 ng per reaction). The compounds prepared in the previous Examples were treated so as to be finally a 1% DMSO aqueous solution, and a substrate cocktail containing ATP (1mM or Km ATP (BTK: 10 uM /ITK: 25uM)) and 0.2 ug/ul of Poly (Glu4,Tyr1) peptide (BTK and ITK final concentration) in the total 25 uL reactants was added to a 96-well plate to initiate enzymatic reaction. After incubation (30°C) for 1 hour, equivalent volume (25 uL per reaction) of ADP Glo was added, and incubated (30°C) for 40 minutes at room temperature. Then, a kinase detection reagent (45 uL per reaction) was added, and incubated (30°C) for 30 minutes at room temperature. The kinase activity was measured by chemiluminescence according to the instructions of ADP Glo kinase assay kit, and the inhibitory activity of the compounds according to the present disclosure was calculated. For the analysis of the results of each compound, Microsoft Excel was used, and IC50 values were calculated by GraphPad Prism software.

[2] = molecular target: T2, BTK (Homo sapiens, UniProt Q06187); assay: Inhibitory activity against BTK, ADP-Glo Kinase system (Promega); format: biochemical
T2 construct: purchased Signalchem B10-10H
T2 sequence (Q06187 whole entry): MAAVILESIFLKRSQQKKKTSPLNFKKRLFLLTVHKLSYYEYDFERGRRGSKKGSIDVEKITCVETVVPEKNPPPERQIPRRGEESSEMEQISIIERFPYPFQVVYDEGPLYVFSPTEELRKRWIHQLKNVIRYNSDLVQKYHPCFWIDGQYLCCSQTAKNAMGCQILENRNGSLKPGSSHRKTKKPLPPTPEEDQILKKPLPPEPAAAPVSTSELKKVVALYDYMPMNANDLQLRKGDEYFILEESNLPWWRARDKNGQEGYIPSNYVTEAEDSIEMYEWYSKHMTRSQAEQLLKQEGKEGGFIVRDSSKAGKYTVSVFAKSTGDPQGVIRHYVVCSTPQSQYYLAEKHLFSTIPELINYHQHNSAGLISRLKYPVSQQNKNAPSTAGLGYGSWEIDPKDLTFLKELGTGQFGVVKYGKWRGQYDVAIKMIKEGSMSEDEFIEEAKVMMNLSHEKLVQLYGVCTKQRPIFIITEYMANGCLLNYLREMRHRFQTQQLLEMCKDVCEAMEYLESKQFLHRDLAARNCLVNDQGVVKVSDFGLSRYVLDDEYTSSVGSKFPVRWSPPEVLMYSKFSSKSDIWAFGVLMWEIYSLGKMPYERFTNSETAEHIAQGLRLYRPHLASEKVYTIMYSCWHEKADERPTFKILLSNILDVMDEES
Experimental: as §1, §2, §3

[3] = 1mM ATP, read-out: ITK IC50(nM) 1mM ATP
[4] = Km ATP (ITK: 25uM), read-out: ITK IC50(nM) Km ATP
[5] = 1mM ATP, read-out: BTK IC50(nM) 1mM ATP
[6] = Km ATP (BTK: 10 uM), read-out: BTK IC50(nM) Km ATP

Structure (SMILES): C=CC(=O)N1CC=C(c2nc(Nc3ncc(C)s3)cc3c2ccn3CC(F)(F)F)CC1 [Example 19, 1-(4-(6-((5-methylthiazol-2-yl)amino)-1-(2,2,2-trifluoroethyl)-1H-pyrrolo[3,2-c]pyridin-4-yl)-3,6-dihydropyridin-1(2H)-yl)prop-2-en-1-one]
- IC50 [1, 3]: 100 to 500 nM
- IC50 [1, 4]: ≤ 20 nM
- IC50 [2, 5]: 20 to 100 nM
- IC50 [2, 6]: ≤ 20 nM

Structure (SMILES): C=CC(=O)N1CC=C(c2nc(Nc3ncc(C)s3)cc3c2ccn3C2CC2(F)F)CC1 (stereo not drawn) [Example 20, 1-(4-(1-(2,2-difluorocyclopropyl)-6-((5-methylthiazol-2-yl)amino)-1H-pyrrolo[3,2-c]pyridin-4-yl)-3,6-dihydropyridin-1(2H)-yl)prop-2-en-1-one]
- IC50 [1, 4]: ≤ 20 nM
- IC50 [2, 6]: ≤ 20 nM

Structure (SMILES): C=CC(=O)N1CC=C(c2nc(Nc3ncc(C)s3)cc3c2ccn3C(F)F)CC1 [Example 21, 1-(4-(1-(difluoromethyl)-6-((5-methylthiazol-2-yl)amino)-1H-pyrrolo[3,2-c]pyridin-4-yl)-3,6-dihydropyridin-1(2H)-yl)prop-2-en-1-one]
- IC50 [1, 4]: ≤ 20 nM
- IC50 [2, 6]: ≤ 20 nM

Structure (SMILES): C=CC(=O)N1CC=C(c2nc(Nc3ncc(C)s3)cc3c2ccn3C(C)(C)C#N)CC1 [Example 22, 2-(4-(1-acryloyl-1,2,3,6-tetrahydropyridin-4-yl)-6-((5-methylthiazol-2-yl)amino)-1H-pyrrolo[3,2-c]pyridin-1-yl)-2-methylpropanenitrile]
- IC50 [1, 4]: ≤ 20 nM
- IC50 [2, 6]: ≤ 20 nM

Structure (SMILES): C=CC(=O)N1CCC=C(c2nc(Nc3ncc(C)s3)cc3c2ccn3C(C)(C)C#N)C1 [Example 23, 2-(4-(1-acryloyl-1,2,5,6-tetrahydropyridin-3-yl)-6-((5-methylthiazol-2-yl)amino)-1H-pyrrolo[3,2-c]pyridin-1-yl)-2-methylpropanenitrile]
- IC50 [1, 4]: ≤ 20 nM
- IC50 [2, 6]: 20 to 100 nM

Structure (SMILES): C=CC(=O)N1CC=C(c2nc(Nc3ncc(C)s3)cc3c2ccn3[C@H](C)C(F)(F)F)CC1 [Example 24, (R)-1-(4-(6-((5-methylthiazol-2-yl)amino)-1-(1,1,1-trifluoropropan-2-yl)-1H-pyrrolo[3,2-c]pyridin-4-yl)-3,6-dihydropyridin-1(2H)-yl)prop-2-en-1-one]
- IC50 [1, 3]: 20 to 100 nM
- IC50 [2, 5]: ≤ 20 nM

Structure (SMILES): C=CC(=O)N1CC=C(c2nc(Nc3ncc(C)s3)cc3c2ccn3CC(F)F)C(C)C1 (stereo not drawn) [Example 25, 1-(4-(1-(2,2-difluoroethyl)-6-((5-methylthiazol-2-yl)amino)-1H-pyrrolo[3,2-c]pyridin-4-yl)-3-methyl-3,6-dihydropyridin-1(2H)-yl)prop-2-en-1-one]
- IC50 [1, 3]: > 500 nM
- IC50 [2, 5]: > 500 nM

Structure (SMILES): C=CC(=O)N1CCC=C(c2nc(Nc3ncc(C)s3)cc3c2ccn3C(C)C)CC1 [Example 26, 1-(4-(1-isopropyl-6-((5-methylthiazol-2-yl)amino)-1H-pyrrolo[3,2-c]pyridin-4-yl)-2,3,6,7-tetrahydro-1H-azepin-1-yl)prop-2-en-1-one]
- IC50 [1, 4]: ≤ 20 nM
- IC50 [2, 6]: ≤ 20 nM

Structure (SMILES): C=CC(=O)N1C2C=C(c3nc(Nc4ncc(C)s4)cc4c3ccn4C(C)C)CC1COC2 (stereo not drawn) [Example 27, 1-(7-(1-isopropyl-6-((5-methylthiazol-2-yl)amino)-1H-pyrrolo[3,2-c]pyridin-4-yl)-3-oxa-9-azabicyclo[3.3.1]non-6-en-9-yl)prop-2-en-1-one]
- IC50 [1, 4]: ≤ 20 nM
- IC50 [2, 6]: ≤ 20 nM

Structure (SMILES): C=CC(=O)N1C2C=C(c3nc(Nc4ncc(C)s4)cc4c3ccn4C)CC1CC2 (stereo not drawn) [Example 28, 1-(3-(1-methyl-6-((5-methylthiazol-2-yl)amino)-1H-pyrrolo[3,2-c]pyridin-4-yl)-8-azabicyclo[3.2.1]oct-2-en-8-yl)prop-2-en-1-one]
- IC50 [1, 3]: ≤ 20 nM
- IC50 [1, 4]: ≤ 20 nM
- IC50 [2, 5]: ≤ 20 nM
- IC50 [2, 6]: ≤ 20 nM

Structure (SMILES): C=CC(=O)N1C2C=C(c3nc(Nc4ncc(C)s4)cc4c3ccn4C(C)C)CC1CC2 (stereo not drawn) [Example 29, 1-(3-(1-isopropyl-6-((5-methylthiazol-2-yl)amino)-1H-pyrrolo[3,2-c]pyridin-4-yl)-8-azabicyclo[3.2.1]oct-2-en-8-yl)prop-2-en-1-one]
- IC50 [1, 4]: ≤ 20 nM
- IC50 [2, 6]: ≤ 20 nM

Structure (SMILES): C=CC(=O)N1C2C=C(c3nc(Nc4ncc(C)s4)cc4c3ccn4CC3(C(F)(F)F)CC3)CC1CC2 (stereo not drawn) [Example 30, 1-(3-(6-((5-methylthiazol-2-yl)amino)-1-((1-(trifluoromethyl)cyclopropyl)methyl)-1H-pyrrolo[3,2-c]pyridin-4-yl)-8-azabicyclo[3.2.1]oct-2-en-8-yl)prop-2-en-1-one]
- IC50 [1, 3]: ≤ 20 nM
- IC50 [2, 5]: ≤ 20 nM

Structure (SMILES): C=CC(=O)N1C2C=C(c3nc(Nc4ncc(C)s4)cc4c3ccn4C3CC3(F)F)CC1CC2 (stereo not drawn) [Example 31, 1-(3-(1-(2,2-difluorocyclopropyl)-6-((5-methylthiazol-2-yl)amino)-1H-pyrrolo[3,2-c]pyridin-4-yl)-8-azabicyclo[3.2.1]oct-2-en-8-yl)prop-2-en-1-one]
- IC50 [1, 4]: ≤ 20 nM
- IC50 [2, 6]: ≤ 20 nM

Structure (SMILES): C=CC(=O)N1C2C=C(c3nc(Nc4ncc(C)s4)cc4c3ccn4CC(C)C)CC1CC2 (stereo not drawn) [Example 32, 1-(3-(1-isobutyl-6-((5-methylthiazol-2-yl)amino)-1H-pyrrolo[3,2-c]pyridin-4-yl)-8-azabicyclo[3.2.1]oct-2-en-8-yl)prop-2-en-1-one]
- IC50 [1, 3]: ≤ 20 nM
- IC50 [1, 4]: ≤ 20 nM
- IC50 [2, 5]: ≤ 20 nM
- IC50 [2, 6]: ≤ 20 nM

Structure (SMILES): C=CC(=O)N1C2C=C(c3nc(Nc4ncc(C)s4)cc4c3ccn4C3CCCC3)CC1CC2 (stereo not drawn) [Example 33, 1-(3-(1-cyclopentyl-6-((5-methylthiazol-2-yl)amino)-1H-pyrrolo[3,2-c]pyridin-4-yl)-8-azabicyclo[3.2.1]oct-2-en-8-yl)prop-2-en-1-one]
- IC50 [1, 3]: ≤ 20 nM
- IC50 [2, 5]: ≤ 20 nM

Structure (SMILES): C=CC(=O)N1C2C=C(c3nc(Nc4ncc(C)s4)cc4c3ccn4CC(F)F)CC1CC2 (stereo not drawn) [Example 34, 1-(3-(1-(2,2-difluoroethyl)-6-((5-methylthiazol-2-yl)amino)-1H-pyrrolo[3,2-c]pyridin-4-yl)-8-azabicyclo[3.2.1]oct-2-en-8-yl)prop-2-en-1-one]
- IC50 [1, 3]: 20 to 100 nM
- IC50 [1, 4]: ≤ 20 nM
- IC50 [2, 5]: ≤ 20 nM
- IC50 [2, 6]: ≤ 20 nM

Structure (SMILES): C=CC(=O)N1C2C=C(c3nc(Nc4ncc(C)s4)cc4c3ccn4CC(F)(F)F)CC1CC2 (stereo not drawn) [Example 35, 1-(3-(6-((5-methylthiazol-2-yl)amino)-1-(2,2,2-trifluoroethyl)-1H-pyrrolo[3,2-c]pyridin-4-yl)-8-azabicyclo[3.2.1]oct-2-en-8-yl)prop-2-en-1-one]
- IC50 [1, 3]: ≤ 20 nM
- IC50 [2, 5]: ≤ 20 nM

Structure (SMILES): C=CC(=O)N1C2C=C(c3nc(Nc4ncc(C)s4)cc4c3ccn4C)CC1CCC2 (stereo not drawn) [Example 36, 1-(3-(1-methyl-6-((5-methylthiazol-2-yl)amino)-1H-pyrrolo[3,2-c]pyridin-4-yl)-9-azabicyclo[3.3.1]non-2-en-9-yl)prop-2-en-1-one]
- IC50 [1, 3]: ≤ 20 nM
- IC50 [2, 5]: ≤ 20 nM

Structure (SMILES): C=CC(=O)N1C2C=C(c3nc(Nc4ncc(C)s4)cc4c3ccn4C(C)C)CC1CCC2 (stereo not drawn) [Example 37, 1-(3-(1-isopropyl-6-((5-methylthiazol-2-yl)amino)-1H-pyrrolo[3,2-c]pyridin-4-yl)-9-azabicyclo[3.3.1]non-2-en-9-yl)prop-2-en-1-one]
- IC50 [1, 3]: ≤ 20 nM
- IC50 [2, 5]: ≤ 20 nM

Structure (SMILES): C=CC(=O)N1C2C=C(c3nc(Nc4ncc(C)s4)cc4c3ccn4CC(C)C)CC1CCC2 (stereo not drawn) [Example 38, 1-(3-(1-isobutyl-6-((5-methylthiazol-2-yl)amino)-1H-pyrrolo[3,2-c]pyridin-4-yl)-9-azabicyclo[3.3.1]non-2-en-9-yl)prop-2-en-1-one]
- IC50 [1, 3]: ≤ 20 nM
- IC50 [2, 5]: ≤ 20 nM

Source: patent publication EP4707277A1, “NOVEL HETEROCYCLIC AMINE DERIVATIVES AND PHARMACEUTICAL COMPOSITION COMPRISING SAME” (Daewoong Pharmaceutical Co., Ltd., priority 2023, dated 2024)
